This series is described as follows: Molar enthalpy of transition or fusion. The following applies: Crystal; DSC.

Numbers after ± are expanded uncertainties.

With `O=C1/C(=C/c2ccc(Cl)cc2)CCc2ccccc21`, the “Molar enthalpy of transition or fusion” value turned out to be 7.33 ± 0.239 kcal/mol.

For the origin of these results see the NIST ThermoML archive (doi:10.1016/j.jct.2014.03.026).
